According to patent US20050106305A1, “Beverage compositions comprising monatin and methods of making same” (Cargill, Inc., priority 2003, published 2005):
Where two headings read alike, the source gives them in different places.

What was measured:
[1] = Taste profiling of lemon/lime carbonates and colas; format: in vivo; conditions: HFCS 10%, aspartame 500 ppm, sucralose 200 ppm, blends 30.8 ppm/5.0%; for Average Score: score 1, poor-5, good, sucrose 10%
Description: Cola and lemon/lime beverages were prepared using the following formulations and sweetened with sucrose, HFCS (55% fructose), aspartame, sucralose, monatin (racemic mix described in Example 14), monatin/sucrose, or monatin/HFCS. One part of syrup was added to 5.5 parts carbonated water and evaluated.
Assessments were carried out ‘double blind’ by a panel of trained tasters. The sucrose-sweetened product was identified as the control and all other products randomly coded. Panelists were asked to assess the randomly coded sample relative to the control for the following attributes:
Panelists also were asked assign a score (1; poor-5; good) for the quality of the sweetener system. A summary of the comments generated together with the average score awarded is presented in Tables 12 and 13 for lemon/lime carbonates and colas, respectively. […] Blends of monatin/carbohydrate rated higher. In the cola, monatin was similar to aspartame.

[2] = Sensory evaluation of soft drinks (lemon/lime, orangeade, cola); format: in vivo; conditions: Cola; aspartame 550 ppm, sucralose 220 ppm, R,R monatin 45 ppm
Description: Beverages (cola, lemon-lime and orange) were formulated and sweetened with aspartame, sucralose or R,R monatin. Qualitative evaluation was carried out.
The term “throw” refers to dilution in water. For example, a throw of “1+4” means 1 part concentrate formulation to 4 parts water. Thus, if a concentrate formulation includes 0.021% wt/vol (i.e., 210 ppm) of R,R monatin, for example, a throw of 1+4 makes a diluted beverage containing 42 ppm (210 ppm/5) R,R monatin.
Final ready-to-drink beverages (after throw) contained sweetener concentrations as follows:
Evaluation of these soft drinks was carried out by a panel (n=6) of assessors who evaluated each set of drinks on separate tasting occasions.

[3] = Sensory stability of monatin and aspartame at pH 2.5, 3.0, 4.0 at 40° C.; format: physicochemical; conditions: for Rate constant (k) of sweetness loss / half-life: pseudo-first order assumed; for SEV / Retention of Sweetness: stored 40° C., monatin ~55 ppm, aspartame 400 ppm; for half-life: phosphate/citrate buffer, read-out: Half-life (t½) of sweetness loss (converted)
Description: The sensory stability of monatin solutions prepared at pH 2.5, 3.0 and 4.0 and stored at 40° C. was monitored for 100 days. Loss of sweetness from these solutions was compared with the losses of sweetness from aspartame solutions prepared and stored under identical conditions.
The sensory stability of monatin (8% SEV, ˜55 ppm, synthetic blend containing approximately 96% of the 2R,4R/2S, 4S enantiometric pair and 4% of the 2R,4S/2S,4R enantiometric pair) in phosphate/citrate buffers having a pH of 2.5, 3.0, and 4.0 was examined after storage at 40° C. The stability of monatin was compared to that of aspartame (400 ppm) in the same buffers. Three sucrose reference solutions were prepared in the same phosphate/citrate buffers as the monatin and aspartame solutions. All prepared solutions were stored in the dark.
Buffer compositions: pH 2.5 Phosphoric acid (75% solution) 0.127% (w/v) Tri-sodium citrate monohydrate 0.005% (w/v) • pH 3.0 Phosphoric acid (75% solution) 0.092% (w/v) Tri-sodium citrate monohydrate 0.031% (w/v) • pH 4.0 Phosphoric acid (75% solution) 0.071% (w/v) Tri-sodium citrate monohydrate 0.047% (w/v)
The sweetness of each sweetener relative to sucrose was assessed in duplicate by a panel (n=8) of trained sensory evaluators experienced in the sweetness estimation procedure. All samples (in the same buffers) were served in duplicate at a temperature of 22° C.±1° C. Monatin (test) solutions, coded with 3 digit random number codes were presented individually to panelists, in random order. Sucrose reference standards, ranging from 4.0-10.0% (w/v) sucrose, increasing in steps of 0.5% (w/v) sucrose were also provided. Panelists were asked to estimate sweetness by comparing the sweetness of the test solution to the sucrose standards. This was carried out by taking 3 sips of the test solution, followed by a sip of water, followed by 3 sips of sucrose standard followed by a sip of water, etc. Panelists were encouraged to estimate the sweetness to one decimal place, e.g., 6.8, 8.5. A five minute rest period was imposed between evaluating the test solutions. Panelists were also asked to rinse well and eat a cracker to reduce any potential carry over effects.
If a pseudo-first order breakdown reaction is assumed, a plot of logn percentage retention versus time (logn%RTN v. t) allows estimation of the half-life (t½) and rate constant (k) of sweetness loss under any given set of conditions. In so doing, the kinetics of monatin and aspartame sweetness loss may be summarized as follows in Table 25.

[4] = cola, sucrose 10% (control), monatin 80 ppm
[5] = lemon/lime carbonate, sucrose 10% (control), monatin 67 ppm

- Sweetness Retained ([3]; after 100 days storage at pH 2.5 at 40° C.): 29%
- Sweetness Retained ([3]; after 100 days storage at pH 3.0 at 40° C.): 58%
- Sweetness Retained ([3]; after 100 days storage at pH 4.0 at 40° C.): 78%
- Rate constant (k) of sweetness loss ([3]; pH 2.5, 40° C.): 0.011 day⁻¹
- Retention of Sweetness ([3]; pH 2.5 buffer, day 1): 93.3%
- Retention of Sweetness ([3]; pH 2.5 buffer, day 2): 91.2%
- Retention of Sweetness ([3]; pH 2.5 buffer, day 3): 88.4%
- Retention of Sweetness ([3]; pH 2.5 buffer, day 4): 85.2%
- Retention of Sweetness ([3]; pH 2.5 buffer, day 7): 82.7%
- Retention of Sweetness ([3]; pH 2.5 buffer, day 8): 81.4%
- Retention of Sweetness ([3]; pH 2.5 buffer, day 9): 80.1%
- Retention of Sweetness ([3]; pH 2.5 buffer, day 11): 78.6%
- Retention of Sweetness ([3]; pH 2.5 buffer, day 50): 62.7%
- Retention of Sweetness ([3]; pH 2.5 buffer, day 100): 28.6%
- Rate constant (k) of sweetness loss ([3]; pH 3.0, 40° C.): 0.006 day⁻¹
- Retention of Sweetness ([3]; pH 3.0 buffer, day 1): 99.6%
- Retention of Sweetness ([3]; pH 3.0 buffer, day 2): 93.2%
- Retention of Sweetness ([3]; pH 3.0 buffer, day 3): 91.4%
- Retention of Sweetness ([3]; pH 3.0 buffer, day 4): 91.6%
- Retention of Sweetness ([3]; pH 3.0 buffer, day 7): 85.3%
- Retention of Sweetness ([3]; pH 3.0 buffer, day 8): 83.8%
- Retention of Sweetness ([3]; pH 3.0 buffer, day 9): 83.1%
- Retention of Sweetness ([3]; pH 3.0 buffer, day 11): 83.1%
- Retention of Sweetness ([3]; pH 3.0 buffer, day 50): 72.3%
- Retention of Sweetness ([3]; pH 3.0 buffer, day 100): 57.9%
- Rate constant (k) of sweetness loss ([3]; pH 4.0, 40° C.): 0.003 day⁻¹
- Retention of Sweetness ([3]; pH 4.0 buffer, day 3): 95.7%
- Retention of Sweetness ([3]; pH 4.0 buffer, day 8): 86.8%
- Retention of Sweetness ([3]; pH 4.0 buffer, day 11): 85.9%
- Retention of Sweetness ([3]; pH 4.0 buffer, day 17): 82.4%
- Retention of Sweetness ([3]; pH 4.0 buffer, day 24): 84.5%
- Retention of Sweetness ([3]; pH 4.0 buffer, day 50): 82.9%
- Retention of Sweetness ([3]; pH 4.0 buffer, day 100): 78.4%
- half-life ([3]; pH 2.5, 40° C.): 65 days
- half-life ([3]; pH 3.0, 40° C.): 115 days
- half-life ([3]; pH 4.0, 40° C.): 230 days
Structure (SMILES): NC(CC(O)(Cc1c[nH]c2ccccc12)C(=O)O)C(=O)O (racemic) [Monatin, 2-hydroxy-2-(indol-3-ylmethyl)-4-aminoglutaric acid]
- Aftertaste [1, 4]: Some lingering
- Mouthfeel [1, 4]: Thinner than control.
- Aftertaste [1, 5]: Quite clean, slight
- Mouthfeel [1, 5]: Slightly less
- Sweetness Profile [1, 5]: Slight delay in onset -
- Average Score ([1]; cola, monatin 80 ppm): 2.9
- Average Score ([1]; lemon/lime carbonate, monatin 67 ppm): 4.0
- Comments (sensory evaluation) [2]: Overall, judged quite similar qualitatively
- SEV ([3]; pH 2.5 buffer, day 0): 7.35 % sucrose
- SEV ([3]; pH 2.5 buffer, day 1): 6.86 % sucrose
- SEV ([3]; pH 2.5 buffer, day 2): 6.70 % sucrose
- SEV ([3]; pH 2.5 buffer, day 3): 6.50 % sucrose
- SEV ([3]; pH 2.5 buffer, day 4): 6.26 % sucrose
- SEV ([3]; pH 2.5 buffer, day 7): 6.08 % sucrose
- SEV ([3]; pH 2.5 buffer, day 8): 5.98 % sucrose
- SEV ([3]; pH 2.5 buffer, day 9): 5.89 % sucrose
- SEV ([3]; pH 2.5 buffer, day 11): 5.78 % sucrose
- SEV ([3]; pH 2.5 buffer, day 50): 4.61 % sucrose
- SEV ([3]; pH 2.5 buffer, day 100): 2.10 % sucrose
- SEV ([3]; pH 3.0 buffer, day 0): 7.08 % sucrose
- SEV ([3]; pH 3.0 buffer, day 1): 7.05 % sucrose
- SEV ([3]; pH 3.0 buffer, day 2): 6.60 % sucrose
- SEV ([3]; pH 3.0 buffer, day 3): 6.47 % sucrose
- SEV ([3]; pH 3.0 buffer, day 4): 6.49 % sucrose
- SEV ([3]; pH 3.0 buffer, day 7): 6.04 % sucrose
- SEV ([3]; pH 3.0 buffer, day 8): 5.93 % sucrose
- SEV ([3]; pH 3.0 buffer, day 9): 5.88 % sucrose
- SEV ([3]; pH 3.0 buffer, day 11): 5.88 % sucrose
- SEV ([3]; pH 3.0 buffer, day 50): 5.12 % sucrose
- SEV ([3]; pH 3.0 buffer, day 100): 4.10 % sucrose
- SEV ([3]; pH 4.0 buffer, day 0): 7.40 % sucrose
- SEV ([3]; pH 4.0 buffer, day 3): 7.08 % sucrose
- SEV ([3]; pH 4.0 buffer, day 8): 6.42 % sucrose
- SEV ([3]; pH 4.0 buffer, day 11): 6.36 % sucrose
- SEV ([3]; pH 4.0 buffer, day 17): 6.10 % sucrose
- SEV ([3]; pH 4.0 buffer, day 24): 6.25 % sucrose
- SEV ([3]; pH 4.0 buffer, day 50): 6.14 % sucrose
- SEV ([3]; pH 4.0 buffer, day 100): 5.80 % sucrose
